In PubChem BioAssay AID623948 (Vanderbilt Specialized Chemistry Center, 2012) one finds outcome, fold shift and % ACh max data, which are given here for 15 compounds.

The source made the active and inactive calls.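 The calls were made as follows: active = compound shifting the acetylcholine potency curve by more than threefold; inactive = the rest.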

This experiment deals with Muscarinic acetylcholine receptor M4 (Homo sapiens) (UniProt P08173). In words: human M4 positive allosteric modulation fold shift – CHO cells, Gqi5 chimera, calcium mobilization, mechanism study, SAR follow-up (AID 623948). Conditions: CHO hM4/Gqi5 calcium mobilization; for outcome / fold shift: ACh fold shift; for fold shift / % ACh max: at 30 µM, stronger effect = higher value; for % ACh max: measured here: ACh max response with compound. For orientation: Calcium assays in cells follow changes in intracellular calcium, usually with a dye or a luminescent sensor.
Chain of Muscarinic acetylcholine receptor M4 (Homo sapiens) (P08173 whole entry, looked up): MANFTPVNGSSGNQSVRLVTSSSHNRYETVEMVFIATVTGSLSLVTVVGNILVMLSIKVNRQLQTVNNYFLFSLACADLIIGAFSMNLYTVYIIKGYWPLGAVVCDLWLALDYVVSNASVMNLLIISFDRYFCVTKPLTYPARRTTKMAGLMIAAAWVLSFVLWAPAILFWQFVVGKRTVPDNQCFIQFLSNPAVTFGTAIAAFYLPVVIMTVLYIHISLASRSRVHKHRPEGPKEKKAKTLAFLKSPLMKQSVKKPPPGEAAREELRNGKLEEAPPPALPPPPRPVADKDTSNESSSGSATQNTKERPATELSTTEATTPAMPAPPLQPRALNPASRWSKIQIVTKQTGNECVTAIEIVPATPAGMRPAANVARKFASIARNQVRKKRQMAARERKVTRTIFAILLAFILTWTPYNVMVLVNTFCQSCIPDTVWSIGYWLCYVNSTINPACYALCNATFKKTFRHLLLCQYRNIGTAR

`Cc1nc2sc(C(=O)NCc3ccccc3)c(N)c2c(C)c1Cl`: the outcome was “active; potentiator”. The same measure, in the same setting: as for `Cc1nc2sc(C(=O)NCCc3ccncc3)c(N)c2c(C)c1Cl`, the entry is “active; potentiator”. On to `COc1ccc(C)c2sc(NC(=O)c3cccnc3)nc12`, for which the fold shift is 2.93 and the % ACh max is 105%.

Regarding `COc1ccc(C)c2sc(NC(=O)c3ccncc3)nc12`, the fold shift is 14.9 and the % ACh max came out at 110%. For `COc1ccc(C)c2sc(NC(=O)c3ccco3)nc12`, in that order: 3.63 and 112%. In the same order, the values of `COc1ccc(C)c2sc(NC(=O)C3=COCCO3)nc12` are 5.98 and 106%. `Cc1nc2sc(C(=O)NC3CC3)c(N)c2c(C)c1Cl`: the outcome was “active; potentiator”. The same measure, in the same setting: as for `Cc1nc2sc(C(=O)NCc3cccc(F)c3F)c(N)c2c(C)c1Cl`, the entry is “active; potentiator”. As for `COc1ccc(C)c2sc(NC(=O)c3cnccn3)nc12`, the fold shift was 3.65 and the % ACh max is 110%. As to `Cc1nc2sc(C(=O)NCc3nccs3)c(N)c2c(C)c1Cl`, the outcome was “active; potentiator”. Turning to `Cc1nc2sc(C(=O)NC3CCOCC3)c(N)c2c(C)c1Cl`, the outcome was “active; potentiator”. For the compound `Cc1nc2sc(C(=O)NCc3ccc4c(c3)OCO4)c(N)c2c(C)c1Cl`, the outcome is “active; potentiator”. On the same count and under the same terms, then `Cc1nc2sc(C(=O)NCc3ccncn3)c(N)c2c(C)c1Cl`, with “active; potentiator”; and `Cc1nc2sc(C(=O)NCc3cccnc3)c(N)c2c(C)c1Cl`, with “active; potentiator”; and `Cc1nc2sc(C(=O)NCc3ccncc3)c(N)c2c(C)c1Cl`, with “active; potentiator”.
